Reference: patent publication US12156880B2, “Heterocyclic RIP1 kinase inhibitors” (Rigel Pharmaceuticals, Inc., priority 2021, dated 2024)

Key:
RIPK1 = biological target: T1, RIPK1 (Homo sapiens, UniProt Q13546); assay: RIPK1 ADP-Glo biochemical kinase assay; settings: read-out: RIPK1 ADP-Glo Kinase (IC50)
T1 sequence (Q13546 1-671): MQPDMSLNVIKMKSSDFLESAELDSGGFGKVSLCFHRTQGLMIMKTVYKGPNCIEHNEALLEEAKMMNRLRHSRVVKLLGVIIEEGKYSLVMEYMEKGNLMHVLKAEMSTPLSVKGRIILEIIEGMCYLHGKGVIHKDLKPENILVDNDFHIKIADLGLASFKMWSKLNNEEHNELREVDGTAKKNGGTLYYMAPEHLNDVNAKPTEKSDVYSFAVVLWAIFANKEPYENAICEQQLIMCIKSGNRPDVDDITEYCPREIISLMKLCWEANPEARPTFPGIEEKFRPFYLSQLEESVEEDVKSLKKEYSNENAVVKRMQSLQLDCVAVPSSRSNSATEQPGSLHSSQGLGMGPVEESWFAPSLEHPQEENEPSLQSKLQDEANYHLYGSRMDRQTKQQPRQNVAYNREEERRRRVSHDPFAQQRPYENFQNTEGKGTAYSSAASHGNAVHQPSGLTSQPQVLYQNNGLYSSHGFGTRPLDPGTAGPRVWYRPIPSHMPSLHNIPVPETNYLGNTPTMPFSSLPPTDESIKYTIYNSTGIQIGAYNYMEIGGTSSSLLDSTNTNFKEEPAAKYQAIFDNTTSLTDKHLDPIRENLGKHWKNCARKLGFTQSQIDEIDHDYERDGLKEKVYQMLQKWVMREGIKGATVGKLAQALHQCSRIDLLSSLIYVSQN
Outline: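 RIPK1 at 31 ng/well in Tris pH 7.4 buffer with MgCl2, BSA, DTT and MnCl2, reacted with compounds (duplicate) for 30 min at 30 °C. ADP formed detected by ADP-Glo: 40 min stop/depletion, then 30 min detection reagent at room temperature; luminescence read.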

L929 cells = assay: L929 cell necroptosis assay (TNFa + zVAD, CellTiter-Glo recovery); type: cell-based, murine; settings: Mus musculus, L929, 18 h, TNFa 2 ng/mL + zVAD-fmk, read-out: L929-CTG-recovery, L929, TNFa + zVAD (IC50)
Outline: (§1)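 Human U937 (50K/well, 60 uM zVAD-fmk medium, plated same day) or murine L929 (10K/well, plated 18 h, then 40 uM zVAD-fmk medium) were grown in RPMI with 10% FBS. Both were pretreated with compound for 1 h at 37 °C before TNFa at 2 ng/mL final. Viability was read by CellTiter-Glo luminescence after 18 h.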

U937 cells = assay: U937 cell necroptosis assay (TNFa + zVAD, CellTiter-Glo recovery); type: cell-based; settings: Homo sapiens, U-937, 18 h, TNFa 2 ng/mL + zVAD-fmk, read-out: U937 Zvad TNF CTG Recovery, U937, TNFa + zVAD (IC50)
Outline: as §1

IC50 (RIPK1)	SMILES	IC50 (L929 cells)	IC50 (U937 cells)
20.2 nM	CN1C(=O)[C@@H](NC(=O)c2cc(Oc3cccnc3)ccn2)COc2ccc(C#CC(C)(C)O)cc21 [I-58, (S)—N-(7-(3-hydroxy-3-methylbut-1-yn-1-yl)-5-methyl-4-oxo-2,3,4,5-tetrahydrobenzo[b][1,4]oxazepin-3-yl)-4-(pyridin-3-yloxy)picolinamide]	1180 nM	3.8 nM
12.8 nM	CN1C(=O)[C@@H](NC(=O)c2cc(Oc3cncc(F)c3)ccn2)COc2ccc(C#CC(C)(C)O)cc21 [I-60, (S)-4-((5-fluoropyridin-3-yl)oxy)-N-(7-(3-hydroxy-3-methylbut-1-yn-1-yl)-5-methyl-4-oxo-2,3,4,5-tetrahydrobenzo[b][1,4]oxazepin-3-yl)picolinamide]	4590 nM	12.1 nM
16.5 nM	CN1C(=O)[C@@H](NC(=O)c2cc(Cc3cccnc3F)ccn2)COc2ccc(C#CC3COC3)cc21 [I-52, (S)-4-((2-fluoropyridin-3-yl)methyl)-N-(5-methyl-7-(oxetan-3-ylethynyl)-4-oxo-2,3,4,5-tetrahydrobenzo[b][1,4]oxazepin-3-yl)picolinamide]	657 nM	2.2 nM
24.2 nM	CN1C(=O)[C@@H](NC(=O)c2cc(Oc3cnn(C)c3)ccn2)COc2ccc(C#CC(C)(C)C)cc21 [I-132, (S)—N-(7-(3,3-dimethylbut-1-yn-1-yl)-5-methyl-4-oxo-2,3,4,5-tetrahydrobenzo[b][1,4]oxazepin-3-yl)-4-((1-methyl-1H-pyrazol-4-yl)oxy)picolinamide]	71.8 nM	4.1 nM
33.1 nM	Cc1ccc(Cc2ccnc(C(=O)N[C@H]3COc4ccc(C#CC(C)(C)O)cc4N(C)C3=O)c2)cn1 [I-72, (S)—N-(7-(3-hydroxy-3-methylbut-1-yn-1-yl)-5-methyl-4-oxo-2,3,4,5-tetrahydrobenzo[b][1,4]oxazepin-3-yl)-4-((6-methylpyridin-3-yl)methyl)picolinamide]	3010 nM	190 nM
15.4 nM	Cc1nc(Cc2ccnc(C(=O)N[C@H]3COc4ccc(C#CC5(O)COC5)cc4N(C)C3=O)c2)cs1 [I-66, (S)—N-(7-((3-hydroxyoxetan-3-yl)ethynyl)-5-methyl-4-oxo-2,3,4,5-tetrahydrobenzo[b][1,4]oxazepin-3-yl)-4-((2-methylthiazol-4-yl)methyl)picolinamide]	98 nM	35.4 nM
55.2 nM	CN1C(=O)[C@@H](NC(=O)c2cc(Oc3cncc(F)c3)ccn2)COc2ccc(C#CC(C)(C)C)cc21 [I-101, (S)—N-(7-(3,3-dimethylbut-1-yn-1-yl)-5-methyl-4-oxo-2,3,4,5-tetrahydrobenzo[b][1,4]oxazepin-3-yl)-4-((5-fluoropyridin-3-yl)oxy)picolinamide]	1580 nM	9.1 nM

More lines, now with the values behind:

SMILES	IC50 (RIPK1)	IC50 (L929 cells)	IC50 (U937 cells)
CN1C(=O)[C@@H](NC(=O)c2cc(Cc3cscn3)ccn2)COc2ccc(C#CC3(O)COC3)cc21 [I-76, (S)—N-(7-((3-hydroxyoxetan-3-yl)ethynyl)-5-methyl-4-oxo-2,3,4,5-tetrahydrobenzo[b][1,4]oxazepin-3-yl)-4-(thiazol-4-ylmethyl)picolinamide]	12.8 nM	538 nM	24.7 nM
Cc1ccc(Oc2ccnc(C(=O)N[C@H]3COc4ccc(C#CC(C)(C)O)cc4N(C)C3=O)c2)cn1 [I-4, (S)—N-(7-(3-hydroxy-3-methylbut-1-yn-1-yl)-5-methyl-4-oxo-2,3,4,5-tetrahydrobenzo[b][1,4]oxazepin-3-yl)-4-((6-methylpyridin-3-yl)oxy)picolinamide]	55.3 nM	7060 nM	361 nM
CN1C(=O)[C@@H](NC(=O)c2cc(Oc3cncc(F)c3)ccn2)COc2ccc(C#CC3(O)COC3)cc21 [I-59, (S)-4-((5-fluoropyridin-3-yl)oxy)-N-(7-((3-hydroxyoxetan-3-yl)ethynyl)-5-methyl-4-oxo-2,3,4,5-tetrahydrobenzo[b][1,4]oxazepin-3-yl)picolinamide]	15.9 nM	382 nM	3.5 nM
CN1C(=O)[C@@H](NC(=O)n2cc(Cc3cccc(F)n3)cn2)COc2ccc(C#CC(O)C(F)(F)F)cc21 (mixture of isomers) [I-105, (±)-4-((6-Fluoropyridin-2-yl)methyl)-N-((3S)-5-methyl-4-oxo-7-(4,4,4-trifluoro-3-hydroxybut-1-yn-1-yl)-2,3,4,5-tetrahydrobenzo[b][1,4]oxazepin-3-yl)-1H-pyrazole-1-carboxamide]	16.8 nM	1540 nM	8.6 nM
CN1C(=O)[C@@H](NC(=O)c2cc(Cc3cccnc3F)ccn2)COc2ccc(C#CC(C)(C)O)cc21 [I-27, (S)-4-((2-fluoropyridin-3-yl)methyl)-N-(7-(3-hydroxy-3-methylbut-1-yn-1-yl)-5-methyl-4-oxo-2,3,4,5-tetrahydrobenzo[b][1,4]oxazepin-3-yl)picolinamide]	19.3 nM	622 nM	9.7 nM
CN1C(=O)[C@@H](NC(=O)n2cc(Cc3cccc(F)n3)cn2)COc2ccc(C#CC(C)(C)C)cc21 [I-106, (S)—N-(7-(3,3-Dimethylbut-1-yn-1-yl)-5-methyl-4-oxo-2,3,4,5-tetrahydrobenzo[b][1,4]oxazepin-3-yl)-4-((6-fluoropyridin-2-yl)methyl)-1H-pyrazole-1-carboxamide]	22.4 nM	750 nM	4.3 nM
CN1C(=O)[C@@H](NC(=O)n2cc(Cc3cccnc3F)cn2)COc2ccc(C#CC3(O)CCOCC3)cc21 [I-44, (S)-4-((2-Fluoropyridin-3-yl)methyl)-N-(7-((4-hydroxytetrahydro-2H-pyran-4-yl)ethynyl)-5-methyl-4-oxo-2,3,4,5-tetrahydrobenzo[b][1,4]oxazepin-3-yl)-1H-pyrazole-1-carboxamide]	62.9 nM	4120 nM	18 nM
CN1C(=O)[C@@H](NC(=O)c2cc(Oc3cnn(C)c3)ccn2)COc2ccc(C#CC3CCOCC3)cc21 [I-136, (S)-4-((1-methyl-1H-pyrazol-4-yl)oxy)-N-(5-methyl-4-oxo-7-((tetrahydro-2H-pyran-4-yl)ethynyl)-2,3,4,5-tetrahydrobenzo[b][1,4]oxazepin-3-yl)picolinamide]	7.7 nM	5.4 nM	0.7 nM
CN1C(=O)[C@@H](NC(=O)c2cc(Oc3cccnc3)ccn2)COc2ccc(C#CC3CCOCC3)cc21 [I-63, (S)—N-(5-methyl-4-oxo-7-((tetrahydro-2H-pyran-4-yl)ethynyl)-2,3,4,5-tetrahydrobenzo[b][1,4]oxazepin-3-yl)-4-(pyridin-3-yloxy)picolinamide]	19.5 nM	60 nM	0.7 nM
CN1C(=O)[C@@H](NC(=O)n2cc(Cc3cccc(F)n3)cn2)CCc2c(F)cc(C#CC(C)(C)CO)cc21 [I-122, (S)—N-(6-Fluoro-8-(4-hydroxy-3,3-dimethylbut-1-yn-1-yl)-1-methyl-2-oxo-2,3,4,5-tetrahydro-1H-benzo[b]azepin-3-yl)-4-((6-fluoropyridin-2-yl)methyl)-1H-pyrazole-1-carboxamide]	32.5 nM	8670 nM	97.4 nM
CN1C(=O)[C@@H](NC(=O)n2cc(Cc3cccc(F)n3)cn2)COc2ccc(C#CC3(O)CCOCC3)cc21 [I-33, (S)-4-((6-Fluoropyridin-2-yl)methyl)-N-(7-((4-hydroxytetrahydro-2H-pyran-4-yl)ethynyl)-5-methyl-4-oxo-2,3,4,5-tetrahydrobenzo[b][1,4]oxazepin-3-yl)-1H-pyrazole-1-carboxamide]	17.1 nM	1130 nM	11.6 nM
Cc1cccc(Cc2ccnc(C(=O)N[C@H]3COc4ccc(C#CC(C)(C)O)cc4N(C)C3=O)c2)n1 [I-11, (S)—N-(7-(3-hydroxy-3-methylbut-1-yn-1-yl)-5-methyl-4-oxo-2,3,4,5-tetrahydrobenzo[b][1,4]oxazepin-3-yl)-4-((6-methylpyridin-2-yl)methyl)picolinamide]	120 nM	7430 nM	126 nM
Cc1ccc(Oc2ccnc(C(=O)N[C@H]3COc4ccc(C#CC5(O)COC5)cc4N(C)C3=O)c2)cn1 [I-3, (S)—N-(7-((3-hydroxyoxetan-3-yl)ethynyl)-5-methyl-4-oxo-2,3,4,5-tetrahydrobenzo[b][1,4]oxazepin-3-yl)-4-((6-methylpyridin-3-yl)oxy)picolinamide]	28.9 nM	3850 nM	152 nM
